Measurements from patent publication US11306078B2, “Piperidine CXCR7 receptor modulators” (IDORSIA PHARMACEUTICALS LTD., priority 2016, dated 2022).

The molecules below were run against human chemokine receptor CXCR7 (Homo sapiens (Human), UniProt P25106) (assay: Tango CXCR7-bla U2OS beta-arrestin recruitment assay (beta-lactamase reporter, FRET), antagonism of CXCL12/SDF1-α). Settings: antagonistic effect on CXCR7; Tango CXCR7-bla U2OS cells, CXCL12/SDF1-α at its EC80.
Format: cell-based
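Further: compounds preincubated 15 min before CXCL12 addition, then 22 h at 37 °C, FRET emission ratio read with CCF4-AM substrate after 2 h.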

Chain of human chemokine receptor CXCR7 (P25106 whole entry): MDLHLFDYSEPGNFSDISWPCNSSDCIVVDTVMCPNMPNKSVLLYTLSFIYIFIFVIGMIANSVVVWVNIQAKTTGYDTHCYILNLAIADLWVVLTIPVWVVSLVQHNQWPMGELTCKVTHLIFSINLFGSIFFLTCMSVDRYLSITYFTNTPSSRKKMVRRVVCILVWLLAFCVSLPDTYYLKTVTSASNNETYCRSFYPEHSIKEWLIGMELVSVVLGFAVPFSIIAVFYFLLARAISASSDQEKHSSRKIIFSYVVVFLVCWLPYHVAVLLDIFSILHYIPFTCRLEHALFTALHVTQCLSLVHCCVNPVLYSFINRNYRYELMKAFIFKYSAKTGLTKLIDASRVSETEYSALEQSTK

Point of comparison: CC(C1CC1)N1CC[C@@H](NC(=O)c2cc(-c3ccc(F)cc3F)on2)[C@H](C(=O)N(C)C)C1 (stereo partly drawn) [Example 2.013], IC50 28 nM. Against it:
- O=C(N[C@H]1CCN(CC2CC2)C[C@@H]1C(=O)NC1(c2cnccn2)CC1)c1cc(-c2ccc(F)cc2F)on1 [Example 1.179, (3S,4S)-1-Cyclopropylmethyl-4-{[5-(2,4-difluoro-phenyl)-isoxazole-3-carbonyl]-amino}-piperidine-3-carboxylic acid (1-pyrazin-2-yl-cyclopropyl)-amide] — 1.8-fold higher, 50 nM
- O=C(N[C@H]1CCN(C2CCCC2)C[C@@H]1C(=O)NC1(c2cnccn2)CC1)c1cc(-c2ccc(F)cc2F)on1 [Example 1.181, (3S,4S)-1-Cyclopentyl-4-{[5-(2,4-difluoro-phenyl)-isoxazole-3-carbonyl]-amino}-piperidine-3-carboxylic acid (1-pyrazin-2-yl-cyclopropyl)-amide] — 3.7-fold higher, 104 nM
- O=C(N[C@H]1CCN(C2CCCC2)C[C@@H]1C(=O)NC1(c2cccnn2)CC1)c1cc(-c2ccc(F)cc2F)on1 [Example 1.182, (3S,4S)-1-Cyclopentyl-4-{[5-(2,4-difluoro-phenyl)-isoxazole-3-carbonyl]-amino}-piperidine-3-carboxylic acid (1-pyridazin-3-yl-cyclopropyl)-amide] — 7.8-fold higher, 218 nM
- Cc1cc(C)nc(C2(NC(=O)[C@H]3CN(C4CCCC4)CC[C@@H]3NC(=O)c3cc(-c4ccc(F)cc4F)on3)CC2)n1 [Example 1.184, (3S,4S)-1-Cyclopentyl-4-{[5-(2,4-difluoro-phenyl)-isoxazole-3-carbonyl]-amino}-piperidine-3-carboxylic acid [1-(4,6-dimethyl-pyrimidin-2-yl)-cyclopropyl]-amide] — 9.3-fold lower, 3 nM
- Cc1cc(C)nc(C2(NC(=O)[C@H]3CN(CC4CC4)CC[C@@H]3NC(=O)c3cc(-c4ccc(F)cc4F)on3)CC2)n1 [Example 1.185, (3S,4S)-1-Cyclopropylmethyl-4-{[5-(2,4-difluoro-phenyl)-isoxazole-3-carbonyl]-amino}-piperidine-3-carboxylic acid [1-(4,6-dimethyl-pyrimidin-2-yl)-cyclopropyl]-amide] — 3.1-fold lower, 9 nM
- CCN1CC[C@@H](NC(=O)c2cc(-c3ccc(F)cc3F)on2)[C@H](C(=O)N(C)C)C1 [Example 2.002] — 24-fold higher, 670 nM
- CN(C)C(=O)[C@@H]1CN(CC(C)(C)C)CC[C@H]1NC(=O)c1cc(-c2ccc(F)cc2F)on1 [Example 2.02] — 8.9-fold higher, 248 nM
- CC(C)N1CC[C@@H](NC(=O)c2cc(-c3ccc(F)cc3F)on2)[C@H](C(=O)N(C)CCc2ccccc2)C1 [Example 2.003] — within 1.5-fold, 34 nM
- CN(C)C(=O)[C@@H]1CN(CC2CCCC2)CC[C@H]1NC(=O)c1cc(-c2ccc(F)cc2F)on1 [Example 2.03] — 2.6-fold higher, 74 nM
- CCN1CC[C@@H](NC(=O)c2cc(-c3ccc(F)cc3F)on2)[C@H](C(=O)N(C)CCc2ccccc2)C1 [Example 2.004] — 4.2-fold higher, 118 nM
- O=C(N[C@@H]1CCN([C@@H]2CCCC[C@H]2F)C[C@H]1C(=O)O)c1cc(-c2ccc(F)cc2F)on1 [Example 2.04] — 17-fold higher, 475 nM
- CN(CCc1ccccc1)C(=O)[C@@H]1CN(C2CCCC2)CC[C@H]1NC(=O)c1cc(-c2ccc(F)cc2F)on1 [Example 2.005] — within 1.5-fold, 25 nM
- CN(CCc1ccccc1)C(=O)[C@@H]1CN([C@@H]2CCCC[C@H]2O)CC[C@H]1NC(=O)c1cc(-c2ccc(F)cc2F)on1 [Example 2.05] — 1.9-fold lower, 15 nM
- CN(CCc1ccccc1)C(=O)[C@@H]1CN(CC2CC2)CC[C@H]1NC(=O)c1cc(-c2ccc(F)cc2F)on1 [Example 2.006] — 1.9-fold lower, 15 nM
- O=C(N[C@@H]1CCN([C@@H]2CCCC[C@H]2O)C[C@H]1C(=O)NC1(c2ncccn2)CC1)c1cc(-c2ccc(F)cc2F)on1 [Example 2.06] — 7-fold lower, 4 nM
- CC(NC(=O)[C@@H]1CN(C(C)C)CC[C@H]1NC(=O)c1cc(-c2ccc(F)cc2F)on1)c1ccccn1 (stereo partly drawn) [Example 2.007] — 3.1-fold higher, 88 nM
- CC(C)CN1CC[C@H](NC(=O)c2cc(-c3ccc(F)cc3F)on2)[C@@H](C(=O)NC2(c3ncccn3)CC2)C1 [Example 2.07] — 2.5-fold lower, 11 nM
- CCN1CC[C@@H](NC(=O)c2cc(-c3ccc(F)cc3F)on2)[C@H](C(=O)NC(C)c2ccccn2)C1 (stereo partly drawn) [Example 2.008] — 14-fold higher, 405 nM
- O=C(N[C@@H]1CCN(CC2CC2)C[C@H]1C(=O)NCCc1ccccn1)c1cc(-c2ccc(F)cc2F)on1 [Example 2.08] — 11-fold higher, 311 nM
- CC(NC(=O)[C@@H]1CN(C2CCCC2)CC[C@H]1NC(=O)c1cc(-c2ccc(F)cc2F)on1)c1ccccn1 (stereo partly drawn) [Example 2.009] — 2.8-fold lower, 10 nM
- CC(NC(=O)[C@@H]1CN(CC2CC2)CC[C@H]1NC(=O)c1cc(-c2ccc(F)cc2F)on1)c1cccc[n+]1[O-] (stereo partly drawn) [Example 2.011] — 4.1-fold higher, 114 nM
- CN(C)C(=O)[C@@H]1CN([C@@H]2CCC[C@H]2CO)CC[C@H]1NC(=O)c1cc(-c2ccc(F)cc2F)on1 [Example 2.014] — 9.6-fold higher, 269 nM
- CC[C@@H]1CCC[C@H]1N1CC[C@@H](NC(=O)c2cc(-c3ccc(F)cc3F)on2)[C@H](C(=O)N(C)C)C1 [Example 2.015] — 1.9-fold higher, 54 nM
- C[C@@H]1CC[C@H]1N1CC[C@@H](NC(=O)c2cc(-c3ccc(F)cc3F)on2)[C@H](C(=O)N(C)C)C1 [Example 2.016] — 2.9-fold higher, 80 nM
- C[C@@H]1CC[C@H]1N1CC[C@@H](NC(=O)c2cc(-c3ccc(F)cc3F)on2)[C@H](C(=O)N(C)C)C1 [Example 2.016a] — 1.8-fold higher, 49 nM
- C[C@@H]1CC[C@H]1N1CC[C@@H](NC(=O)c2cc(-c3ccc(F)cc3F)on2)[C@H](C(=O)N(C)C)C1 [Example 2.016b] — 2.2-fold higher, 63 nM
- CN(C)C(=O)[C@@H]1CN(C2CCC2(C)C)CC[C@H]1NC(=O)c1cc(-c2ccc(F)cc2F)on1 (stereo partly drawn) [Example 2.017] — 2.6-fold higher, 73 nM
- CN(C)C(=O)[C@@H]1CN(C2CCC(C)(C)C2)CC[C@H]1NC(=O)c1cc(-c2ccc(F)cc2F)on1 (stereo partly drawn) [Example 2.018] — 5.2-fold higher, 145 nM
- CN(C)C(=O)[C@@H]1CN(C2CCCC2)CC[C@H]1NC(=O)c1cc(-c2ccc(F)cc2F)on1 [Example 2.019] — 4.5-fold higher, 126 nM
- CN(C)C(=O)[C@@H]1CN(C2CCCC2)CC[C@H]1NC(=O)c1cc(-c2ccc(F)cc2F)on1 [Example 2.019a] — 1.6-fold higher, 44 nM
- CC(C)CCN1CC[C@@H](NC(=O)c2cc(-c3ccc(F)cc3F)on2)[C@H](C(=O)N(C)C)C1 [Example 2.021] — 10-fold higher, 293 nM
- CN(C)C(=O)[C@@H]1CN(CCC(C)(C)C)CC[C@H]1NC(=O)c1cc(-c2ccc(F)cc2F)on1 [Example 2.022] — 5.5-fold higher, 155 nM
- C[C@@H]1CCC[C@H]1N1CC[C@@H](NC(=O)c2cc(-c3ccc(F)cc3F)on2)[C@H](C(=O)N(C)C)C1 [Example 2.023] — within 1.5-fold, 37 nM
- C[C@@H]1CCC[C@H]1N1CC[C@@H](NC(=O)c2cc(-c3ccc(F)cc3F)on2)[C@H](C(=O)N(C)C)C1 [Example 2.023a] — 3.1-fold lower, 9 nM
- C[C@@H]1CCC[C@H]1N1CC[C@@H](NC(=O)c2cc(-c3ccc(F)cc3F)on2)[C@H](C(=O)N(C)C)C1 [Example 2.023b] — within 1.5-fold, 26 nM
- CN(C)C(=O)[C@@H]1CN(C2CCCC(C)(C)C2)CC[C@H]1NC(=O)c1cc(-c2ccc(F)cc2F)on1 (stereo partly drawn) [Example 2.024] — 3.6-fold higher, 101 nM
- CN(C)C(=O)[C@@H]1CN(C2CC3(CCC3)C2)CC[C@H]1NC(=O)c1cc(-c2ccc(F)cc2F)on1 [Example 2.025] — 16-fold higher, 435 nM
- CN(C)C(=O)[C@@H]1CN(C2CCC(F)CC2)CC[C@H]1NC(=O)c1cc(-c2ccc(F)cc2F)on1 (stereo partly drawn) [Example 2.026] — 8.9-fold higher, 249 nM
- CN(C)C(=O)[C@@H]1CN(C2CCC(F)(F)CC2)CC[C@H]1NC(=O)c1cc(-c2ccc(F)cc2F)on1 [Example 2.027] — 27-fold higher, 745 nM
- CN(C)C(=O)[C@@H]1CN(C2CCC2)CC[C@H]1NC(=O)c1cc(-c2ccc(F)cc2F)on1 [Example 2.028] — 2.1-fold higher, 60 nM
- CN(C)C(=O)[C@@H]1CN(CC2CC2)CC[C@H]1NC(=O)c1cc(-c2ccc(F)cc2F)on1 [Example 2.029] — 2.1-fold higher, 60 nM
- CN(C)C(=O)[C@@H]1CN(C2CC(C)(C)C2)CC[C@H]1NC(=O)c1cc(-c2ccc(F)cc2F)on1 [Example 2.031] — 20-fold higher, 558 nM
- CO[C@@H]1CCC[C@@H](N2CC[C@@H](NC(=O)c3cc(-c4ccc(F)cc4F)on3)[C@H](C(=O)N(C)C)C2)C1 [Example 2.032] — 6.9-fold higher, 192 nM
- CO[C@@H]1CCCC[C@H]1N1CC[C@@H](NC(=O)c2cc(-c3ccc(F)cc3F)on2)[C@H](C(=O)N(C)C)C1 [Example 2.033] — 4.7-fold higher, 132 nM
- CN(C)C(=O)[C@@H]1CN(CC2(C)CC2)CC[C@H]1NC(=O)c1cc(-c2ccc(F)cc2F)on1 [Example 2.034] — 3.1-fold higher, 87 nM
- CN(C)C(=O)[C@@H]1CN(CC2(C)CCC2)CC[C@H]1NC(=O)c1cc(-c2ccc(F)cc2F)on1 [Example 2.035] — 4.3-fold higher, 121 nM
- CN(C)C(=O)[C@@H]1CN(CC2=CCCC2)CC[C@H]1NC(=O)c1cc(-c2ccc(F)cc2F)on1 [Example 2.036] — 5.9-fold higher, 165 nM
- CN(C)C(=O)[C@@H]1CN([C@@H]2C[C@@H]3CC[C@@H]2C3)CC[C@H]1NC(=O)c1cc(-c2ccc(F)cc2F)on1 [Example 2.037] — 5.8-fold higher, 161 nM
- CN(C)C(=O)[C@@H]1CN(CC2CCC2)CC[C@H]1NC(=O)c1cc(-c2ccc(F)cc2F)on1 [Example 2.038] — 3.5-fold higher, 99 nM
- CN(C)C(=O)[C@@H]1CN(CCC2CC2)CC[C@H]1NC(=O)c1cc(-c2ccc(F)cc2F)on1 [Example 2.039] — 3-fold higher, 83 nM
- CN(C)C(=O)[C@@H]1CN(CC2CC2)CC[C@H]1NC(=O)c1cc(-c2ccc(F)cc2F)on1 [Example 2.045] — 4.1-fold higher, 114 nM
- CC(C1CC1)N1CC[C@@H](NC(=O)c2cc(-c3ccc(F)cc3F)on2)[C@H](C(=O)N(C)C)C1 (stereo partly drawn) [Example 2.046] — 1.8-fold lower, 16 nM
- CN(C)C(=O)[C@@H]1CN(C2CCCC23CC3)CC[C@H]1NC(=O)c1cc(-c2ccc(F)cc2F)on1 (stereo partly drawn) [Example 2.047] — 5.2-fold higher, 145 nM
- CN(C)C(=O)[C@@H]1CN([C@@H]2CCCC[C@H]2O)CC[C@H]1NC(=O)c1cc(-c2ccc(F)cc2F)on1 [Example 2.048] — 18-fold higher, 501 nM
- C[C@H]([C@@H](C)O)N1CC[C@@H](NC(=O)c2cc(-c3ccc(F)cc3F)on2)[C@H](C(=O)N(C)C)C1 [Example 2.049] — 25-fold higher, 709 nM
- C[C@H]([C@@H](C)O)N1CC[C@@H](NC(=O)c2cc(-c3ccc(F)cc3F)on2)[C@H](C(=O)N(C)CCc2ccccc2)C1 [Example 2.051] — 1.5-fold higher, 42 nM
